{"source": "patent US11376255B2", "about": "“Thiocarbamate derivatives as A2A inhibitors, pharmaceutical composition thereof and combinations with anticancer agents” (iTeos Belgium SA, priority 2018, dated 2022)", "key": {"[1]": {"tested_on": "A20 mouse B-cell tumor cells", "test": "Syngeneic A20 experimental lymphoma model in combination with anti-PD-L1", "format": "in vivo, BALB/c mice", "details": "for TGI: day 23", "procedure": "In this study the anti-tumor efficacy of Compound 7 was assessed either as single agent (monotherapy) or in combination with antagonist anti-Programmed Death-Ligand 1 (anti-PD-L1) monoclonal antibody (10F.9G2, BioXcell) in a model of B cell lymphoma model. (NCR-A2A-031).\nBALB/c female mice (8 weeks old) were inoculated with A20 mouse B-cell tumor cells, subcutaneously in the right lower flank region (day 0). When tumors reached a size of about 50 mm^3 (Day 7), mice were allocated randomly into groups and treatment was initiated."}, "Hepa 1-6 tumor cells": {"tested_on": "Hepa 1-6 tumor cells", "test": "Syngeneic HEPA1-6 mouse liver tumor model", "format": "in vivo, C57BL/6 mice", "details": "3 mg/kg p.o. BID, single agent; calculated on Day 22", "text": "This study evaluated the anti-tumor activity of Compound 7 in a mouse hepatoma model (NCR-A2A-032).\nC57BL/6 female mice (8 weeks old) were inoculated subcutaneously in the right flank region with Hepa 1-6 tumor cells (on day 0). When tumor size reached about 50 mm^3 (on Day 4), mice were randomly allocated into experimental groups and treatment was initiated from day 4 to 25."}, "Human CD3+ T cells": {"tested_on": "Human CD3+ T cells", "test": "Human T cell activation assay in presence of ATP (CFSE proliferation, TNFα AlphaLISA)", "details": "ATP 100 μM, 72 hours", "from_the_text": "PBMC and CD3^+ T cell isolation. Venous blood from healthy volunteers was obtained via ImmuneHealth (Centre Hospitalier Universitaire Tivoli, La Louviere, Belgium). Peripheral blood mononuclear cells (PBMCs) were collected by density gradient centrifugation, using SepMate-50 tubes (StemCell Technologies, Grenoble, France) and Lymphoprep (Axis-shield, Oslo, Norway) according to the manufacturer's instructions. PBMCs were stored in heat inactivated foetal bovine serum (hiFBS; Gibco, ThermoFisher Scientific, Merelbeke, Belgium) containing 10% DMSO in liquid nitrogen until required. PBMCs were thawed and washed into PBS (with 10% hiFBS) and labelled with 1 μM CFSE (Life Technologies) at room temperature for 5 minutes. Cells were washed into StemCell isolation buffer and CD3^+ T cells were isolated by immunomagnetic negative selection, using the EasySep Human T Cell Isolation Kit (StemCell Technologies) as per manufacturer's instructions.\nHuman T cell activation assay. […]\nCells were placed in a 37° C. humidified tissue culture incubator with 5% CO2 for 72 hours. […] Proliferation of CD4^+ T cells was assessed by determining CFSE dilution by flow cytometry using a BD LSRFortessa (BD Biosciences). Supernatants were later thawed and TNFα was quantified using the AlphaLISA Human TNFα Biotin-Free Detection Kit (AL325; Perkin-Elmer, Zaventem, Belgium), according to the manufacturer's instructions."}, "CT26 mouse tumor cells": {"tested_on": "CT26 mouse tumor cells", "test": "Syngeneic CT26 experimental colon cancer model in combination with Doxorubicin and/or anti-TIGIT mAb"}, "MCA205 tumor cells": {"tested_on": "MCA205 tumor cells", "test": "Syngeneic MCA205 experimental fibrosarcoma model in combination with Oxaliplatin", "format": "in vivo, C57BL/6 mice", "details": "Oxaliplatin 10 mg/kg i.p. single administration at D11, single agent; p=0.0202", "text": "MCA205 tumor cells were inoculated subcutaneously into the right flank of C57BL/6 mice. When tumors reached an average size of about 80 mm^3, mice were randomly allocated into groups."}}, "data": [{"smiles": "C[S@@+]([O-])CCOc1cc(N2CCN(CCn3c(=O)sc4c3nc(N)n3nc(-c5ccco5)nc43)CC2)c(F)cc1F", "note": "(racemic) [Compound 7, (R,S)-5-amino-3-(2-(4-(2,4-difluoro-5-(2-(methylsulfinyl)ethoxy)phenyl)piperazin-1-yl)ethyl)-8-(furan-2-yl)thiazolo[5,4-e][1,2,4]triazolo[1,5-c]pyrimidin-2(3H)-one]", "values": [{"measurement": "TGI", "setting": "[1]; Compound 7 0.3 mg/kg p.o. BID in combination with anti-PD-L1 mAb 5 mg/kg i.p. Q3D×3", "value": 76, "unit": "%"}, {"measurement": "TGI", "setting": "[1]; Compound 7 3 mg/kg BID in combination with anti-PD-L1 mAb 5 mg/kg i.p. Q3D×3", "value": 82, "unit": "%"}, {"measurement": "interaction with anti-PD-L1 mAb on growth of established A20 tumor (statistical analysis)", "setting": "[1]; combination with anti-PD-L1 mAb, p=0.017", "value": "synergises with anti-PD-L1 mAb"}, {"measurement": "tumor growth inhibition (TGI)", "setting": "Hepa 1-6 tumor cells", "value": 44, "unit": "%"}]}, {"smiles": "CCN(CC)c1ncnc2c1ncn2[C@@H]1O[C@H](COP(=O)(O)OP(=O)(O)C(Br)(Br)P(=O)(O)O)[C@@H](O)[C@H]1O", "note": "[ARL67156]", "values": [{"measurement": "restoration of TNFα production inhibited by ATP", "setting": "Human CD3+ T cells; CD39 inhibitors ARL67156 100 μM and POM-1 10 μM without compound 8a", "value": "approximately 50%"}, {"measurement": "CD4+ T cell proliferation inhibited by ATP", "setting": "Human CD3+ T cells; combination of CD39 inhibitors ARL67156 100 μM and POM-1 10 μM", "value": "almost completely rescued"}]}, {"smiles": "COc1cccc2c1C(=O)c1c(O)c3c(c(O)c1C2=O)C[C@@](O)(C(=O)CO)C[C@@H]3O[C@H]1C[C@H](N)[C@H](O)[C@H](C)O1", "note": "[Doxorubicin]", "values": [{"measurement": "anti-tumor efficacy compared to anti-TIGIT mAb or Doxorubicin stand-alone", "setting": "CT26 mouse tumor cells; Doxorubicin 6 mg/kg in combination with anti-TIGIT mAb 1 mg/kg, p=0.008 and p=0.0002", "value": "improved anti-tumor efficacy"}, {"measurement": "tumor growth", "setting": "CT26 mouse tumor cells; Doxorubicin 6 mg/kg on day 10 and 14, single agent, p=0.14", "value": "no significant effect on tumor growth"}, {"measurement": "complete responders (CR)", "setting": "CT26 mouse tumor cells; anti-TIGIT+Doxorubicin combination, out of 10 mice", "value": "one"}]}, {"smiles": "O=C1[O][Pt]2([NH][C@@H]3CCCC[C@H]3[NH]2)[O]C1=O", "note": "[Oxaliplatin]", "values": [{"measurement": "tumor growth compared to Vehicle", "setting": "MCA205 tumor cells", "value": "significant delay in tumor growth"}]}]}
